Results as given in patent US8680076B2, “Methods of treatment, improvement and prevention using haloaryl substituted aminopurines” (Signal Pharmaceuticals, LLC, priority 2010, dated 2014).
Entries after “also recorded” stand apart in the source; their conditions may differ.

Experiments:
[1] = test system: mice, bleomycin-induced pre-established dermal fibrosis; test: Modified model of bleomycin-induced dermal fibrosis (regression of established fibrosis); type: in vivo, mouse
Text: To evaluate, whether inhibition of JNK might also be effective for the treatment of established fibrosis, a modified model of bleomycin-induced dermal fibrosis was used. […] Thus, Compound JNKi-1 decreased the level of dermal thickness under the pre-treatment level (127±4% vs 175±8% compared to NaCl injections for 6 weeks, p=0.008 and p=0.021) (FIG. 7A).

CD-IGS rats = test: Rat model of excisional wound healing; type: in vivo
Protocol: Male CD-IGS rats (Strain code 001; n=32-52 per experiment) were obtained from Charles River Laboratories at a body weight of 175-195 g. Rats were housed in regular shoebox cages and allowed to become acclimated for a minimum of 1 week. Rats were fed Harlan Teklad (No. 7001) 4% mouse/rat diet and water ad libitum and were maintained on a 12-hour light/dark cycle.
Suspensions of Compound JNKi-1 were prepared in aqueous 0.5% CMC and 0.25% Tween-80. The formulations were homogenized using a TEFLON® pestle and mortar (Potter-Elvehjem tissue grinder). Vehicle (aqueous solution of 0.5% carboxymethylcellulose, and 0.25% Tween-80) and test article compounds were dosed at a volume of 5 mL/kg. Groups of rats (n=4-8/group) were dosed orally with vehicle, Dexamethasone (0.5 mg/kg) or Compound JNKi-1 (10 mg/kg, 30 mg/kg or 60 mg/kg) daily throughout the study starting 4 days prior to the procedure and continuing for up to […]. Compound JNKi-1 treated groups and the respective vehicle control group were dosed twice daily (bid) with an 8 hr separation between the doses. Dexamethasone treated animals and the respective vehicle control group were dosed once daily (qd) for the duration of the study.
Rats were anesthetized by inhaled isoflurane and the dorsal area was shaved and swabbed with 70% alcohol. Two points were marked 5.5 and 8.5 cm from the base of the skull along the midline. Four further points were marked 1 cm at either side of the midline, two at each of the marked points. These delineated the centers of four excisional wounds. The biopsy punch (6 mm diameter) was aligned vertically over the center of a mark and the epidermis, dermis and panniculus carnosus pierced by applying pressure and twisting at the same time. The skin plug was then removed. This was repeated for the remaining wounds (FIG. 15). The animal was then allowed to recover. All animals were housed singly during the experiment. Rats were monitored twice a day for the first 24 hours following the procedure and then daily until the end of the study. Body weights were recorded two or three times per week. Animals were sacrificed via CO2 asphyxiation at various time-points (day 1, 5, 10 or 14) following wounding.
Each wound size was measured using an electronic digital caliper and the percent of wound remaining open was calculated relative to the initial wound size recorded on day 0 (day of wounding procedure). Four values were averaged for each animal (four wounds on each rat). Measurements were taken at different time-points throughout the study.
Wounds and 2 mm of surrounding tissue were excised using an 8 mm biopsy punch. Wounds were harvested on days 1, 5, 10 and 14 following the procedure. Tissues were fixed in neutral buffered formalin for 3 h then transferred to 100% ethanol. Tissues were paraffin-embedded and four μm cross sections were cut and mounted on poly-lysine slides and stored in slide boxes at room temperature.
One slide for each specimen was stained for H&E to assess granulation-tissue formation and re-epithelialization of the wound gap.
Samples collected on day 10 and 14 were stained with Trichrome Stain (Masson) Kit (Sigma, HT15) to evaluate collagen deposition and remodeling.
Tissue sections were deparaffinized and hydrated to deionized (DI) water. Sections were incubated in preheated Bouin' Solution (Sigma, HT10-132) at 56° C. overnight and then thoroughly rinsed in tap water. Sections were stained in Weigert's Iron Hematoxylin solution (Sigma, HT10-79) for 15 min, washed, and counterstained with Biebrich Scarlet Acid Fuchsin solution. After washing, sections were incubated with Phosphotungstic-Phosphomolybdic acid solution for 15 min and then stained with Aniline Blue solution. Sections were dehydrated and cleared in xylene.
Wound healing was evaluated on day 10 and day 14 after the procedure. H&E sections were scored for re-epithelialization using the following criteria: […]

[2] = 150 mg/kg for the last 3 weeks of 6 weeks bleomycin
[3] = 60 mg/kg bid, Studies A and B combined

Structure (SMILES): O[C@H]1CC[C@H](Nc2ncc3nc(Nc4c(F)cc(F)cc4F)n([C@H]4CCOC4)c3n2)CC1 [JNKi-1, 4-((9-((3S)-tetrahydro-3-furanyl)-8-((2,4,6-trifluorophenyl)amino)-9H-purin-2-yl)amino)-trans-cyclohexanol]
- dermal thickness, normalized to NaCl injections for 6 weeks = 100% ([1]; 150 mg/kg BID for the last 3 weeks of 6 weeks bleomycin): 127±4%
- accumulation of collagen (hydroxyproline assay) [1, 2]: significantly reduced
- number of myofibroblasts, normalized to NaCl injections for 6 weeks = 100% [1, 2]: 171±31%
- regression of established fibrosis / dermal thickening (in words) ([1]; treatment for the last 3 weeks of continuous bleomycin challenge): induced regression of dermal thickening; also recorded: induced regression of fibrosis
- wound healing (wound size) in words (CD-IGS rats; 60 mg/kg b.i.d): delay in wound healing was observed
- delay in wound healing (CD-IGS rats; 60 mg/kg b.i.d, n=3 studies): 27%
- healing at day 14 (CD-IGS rats; 60 mg/kg bid): fully healed
- rats completely healed by day 10 (healing score) (CD-IGS rats; [3]): 5 out of 14
- rats with both incomplete re-epithelialization and collagen remodeling at day 10 (CD-IGS rats; [3]): 3 rats
- rats with incomplete new epidermis at day 10 (CD-IGS rats; [3]): two
- rats with only partial collagen remodeling at day 10 (CD-IGS rats; [3]): 4 rats
- neutrophils recruited into the wounds (MPO IHC) versus controls (CD-IGS rats; 60 mg/kg, day 1 post wounding): did not affect inflammatory cell infiltration; also recorded: comparable
- myofibroblast migration into the wound gap (α-SMA IHC) (CD-IGS rats; 60 mg/kg, day 5 post wounding): reduced myofibroblast migration; also recorded: few myofibroblasts migrating at the wound edges
- wound size versus vehicle (CD-IGS rats; 30 or 10 mg/kg bid): no difference
- healing score versus vehicle control, day 10 (CD-IGS rats; Study C, 10 mg/kg): No significant effect
- rats with both incomplete re-epithelialization and collagen remodeling (CD-IGS rats; Study C, 30 mg/kg, day 10): 5 out of 8
- rats completely healed by day 10 (CD-IGS rats; Study C, 60 mg/kg): None
- healing score versus vehicle control, day 10 (CD-IGS rats; Study C, 60 and 30 mg/kg): significant delay in healing
- time of complete skin repair post wounding (CD-IGS rats; all treated groups): ≤ 14 days
